Source: patent US20070004735A1, “Method for inhibiting the replication of herpes viruses” (priority 2003, published 2007)

Columns and labels:
[1] = test system: Human cytomegalovirus (HCMV); test: Anti-HCMV cytopathogenicity test; type: cell-based; details: for IC50: Human betaherpesvirus 5, 144 h, NHDF cells, 6 days, cytopathogenic effect, read-out: IC50, antiviral activity in vitro; for SI (selectivity index): antiviral activity in vitro
Procedure: Human cytomegalovirus (HCMV), DavisSmith (ATCC VR807) or AD169 (ATCC VR538) strain, is grown in vitro on human embryonic prepuce fibroblasts (NHDF cells). After the NHDF cells have been infected with a multiplicity of infection (M.O.I.) of 0.01, the virus-infected cells are harvested 5-10 days later and stored in the presence of minimal essential medium (MEM), 10% fetal calf serum (FCS) with 10% DMSO at −80° C. A cell-free stock is produced by removing only the cell culture supernatant and immediately freezing at −80° C. After serial ten-fold dilutions of the virus-infected cells or of the cell culture supernatant of the virus-infected cells (cell-free virus), the titer is determined on 24-well plates of confluent NHDF cells after vital staining with neutral red.
(§1) The test compounds are employed as 50 millimolar (mM) solutions in dimethyl sulfoxide (DMSO). Ganciclovir®, Foscarnet® and Cidofovir® are used as reference compounds. After addition of in each case 2 μl of the 50, 5, 0.5 and 0.05 mM DMSO stock solutions to 98 μl portions of cell culture medium in row 2 A-H for duplicate determinations, 1:2 dilutions are carried out with 50 μl portions of medium up to row 11 of the 96-well plate. The wells in rows 1 and 12 each contain 50 μl of medium. 150 μl of a suspension of 1×10^4 cells (human prepuce fibroblasts [NHDF]) are then pipetted into each of the wells (row 1=cell control) and, in rows 2-12, a mixture of HCMV-infected and uninfected NHDF cells (M.O.I.=0.001-0.002), i.e. 1-2 infected cells per 1000 uninfected cells. Row 12 (without substance) serves as virus control. The final test concentrations are 250-0.0005 μM. The plates are incubated at 37° C./5% CO2 for 6 days, i.e. until all the cells are infected in the virus controls (100% cytopathogenic effect [CPE]). The wells are then fixed and stained by adding a mixture of formalin and Giemsa's dye (30 minutes), washed with double-distilled water and dried in a drying oven at 50° C. The plates are then assessed visually using an overhead microscope (plaque multiplier from Technomara).

wild-type HCMV AD169 = test: Susceptibility (IC50) of HCMV AD169 wild-type; type: cell-based, Human cytomegalovirus; details: Human betaherpesvirus 5, NHDF cells, read-out: IC 50, Wild-type
Procedure: as §1
(§2) For this purpose, NHDF cells are seeded in tissue culture vessels. 5×10^3 cells per well are seeded in 96-well plates and infected with cell-free HCMV AD169 with an moi of 0.03. The infections are cultivated under substance pressure which corresponds to 10 times the IC50 of the substance. Preferably, 30-100 96-well plates inoculated as described are made up. […] Finally, viral stocks are produced as described above and frozen. Serial ten-fold dilution of the virus-infected cells or of the cell culture supernatant of the virus-infected cells is followed by determination of the titer on 24-well plates of confluent NHDF cells after vital staining with neutral red. Finally, the susceptibility to various substances (IC50 determination) is determined as described above.
(§3) The HCMVAD169 mutants selected as described above are grown in vitro on human embryonic prepuce fibroblasts (NHDF cells) under substance pressure (10×IC50 HCMVAD169). After infection of the NHDF cells with a multiplicity of infection (M.O.I) of 0.01, the virus-infected cells are harvested 5-10 days later, and the total DNA is isolated from these cells with the aid of established standard methods (e.g. phenol extraction and ethanol precipitation). Qiagen Sequencing Services (Qiagen, Hilden) determined, after amplification of the viral UL86 gene by PCR, the DNA sequence, which was then transcribed into protein sequence. Compared with the initial strain HCMV AD169, the differences shown in table 2 were detectable in the protein sequence of the major capsid protein (UL86) in the resistant viruses. The IC50 values [μM] of various substances on these mutants compared with the initial strain are likewise indicated. (n.d.=not measured). […] Depending on the nature of the substance, certain mutations lead to various extents of resistance.

[2] = test system: HCMV AD169 clone with mutation in UL86 R435C; test: Susceptibility (IC50) of resistant HCMV AD169 clone R435C; type: cell-based, Human cytomegalovirus; details: Human betaherpesvirus 5, read-out: IC 50, R435C
Procedure: as §1, §2, §3

[3] = test system: HCMV AD169 clone with mutation in UL86 D441N; test: Susceptibility (IC50) of resistant HCMV AD169 clone D441N; type: cell-based, Human cytomegalovirus; details: Human betaherpesvirus 5, read-out: IC 50, D441N
Procedure: as §1, §2, §3

[4] = test system: HCMV AD169 clone with mutation in UL86 D563N; test: Susceptibility (IC50) of resistant HCMV AD169 clone D563N; type: cell-based, Human cytomegalovirus; details: Human betaherpesvirus 5, read-out: IC 50, D563N
Procedure: as §1, §2, §3

[5] = test system: HCMV AD169 clone with mutation in UL86 P586T; test: Susceptibility (IC50) of resistant HCMV AD169 clone P586T; type: cell-based, Human cytomegalovirus; details: Human betaherpesvirus 5, read-out: IC 50, P586T
Procedure: as §1, §2, §3

[6] = test system: HCMV AD169 clone with mutation in UL86 V601M; test: Susceptibility (IC50) of resistant HCMV AD169 clone V601M; type: cell-based, Human cytomegalovirus; details: Human betaherpesvirus 5, read-out: IC 50, V601M
Procedure: as §1, §2, §3

[7] = test system: HCMV AD169 clone with mutation in UL86 R682H; test: Susceptibility (IC50) of resistant HCMV AD169 clone R682H; type: cell-based, Human cytomegalovirus; details: Human betaherpesvirus 5, read-out: IC 50, R682H
Procedure: as §1, §2, §3

[8] = test system: HCMV AD169 clone with mutation in UL86 A689T; test: Susceptibility (IC50) of resistant HCMV AD169 clone A689T; type: cell-based, Human cytomegalovirus; details: Human betaherpesvirus 5, read-out: IC 50, A689T
Procedure: as §1, §2, §3

[9] = test system: HCMV AD169 clone with mutation in UL86 P1189T; test: Susceptibility (IC50) of resistant HCMV AD169 clone P1189T; type: cell-based, Human cytomegalovirus; details: Human betaherpesvirus 5, read-out: IC 50, P1189T
Procedure: as §1, §2, §3

[10] = test system: HCMV AD169 clone with mutation in UL86 Q1223R; test: Susceptibility (IC50) of resistant HCMV AD169 clone Q1223R; type: cell-based, Human cytomegalovirus; details: Human betaherpesvirus 5, read-out: IC 50, Q1223R
Procedure: as §1, §2, §3

[11] = test system: HCMV AD169 clone with mutation in UL86 A1226T; test: Susceptibility (IC50) of resistant HCMV AD169 clone A1226T; type: cell-based, Human cytomegalovirus; details: Human betaherpesvirus 5, read-out: IC 50, A1226T
Procedure: as §1, §2, §3

[12] = test system: HCMV AD169 clone with mutation in UL86 E1320Q; test: Susceptibility (IC50) of resistant HCMV AD169 clone E1320Q; type: cell-based, Human cytomegalovirus; details: Human betaherpesvirus 5, read-out: IC 50, E1320Q
Procedure: as §1, §2, §3

[13] = test system: HCMV AD169 clone with mutation in UL86 K1338N; test: Susceptibility (IC50) of resistant HCMV AD169 clone K1338N; type: cell-based, Human cytomegalovirus; details: Human betaherpesvirus 5, read-out: IC 50, K1338N
Procedure: as §1, §2, §3

Compound | IC50 [1] | SI (selectivity index) [1] | IC50 (wild-type HCMV AD169) | IC50 [2] | IC50 [3] | IC50 [4] | IC50 [5] | IC50 [6] | IC50 [7] | IC50 [8] | IC50 [9] | IC50 [10] | IC50 [11] | IC50 [12] | IC50 [13] | melting point
CC(=O)Nc1ccc(NC(=O)Nc2ccc(F)c(Cl)c2)cc1 [Example 3, N-[4-({[(3-Chloro-4-fluorophenyl)amino]carbonyl}amino)phenyl]acetamide] | 500 nM | 40 | 500 nM | > 20000 nM | > 20000 nM | > 20000 nM | > 20000 nM | > 20000 nM | > 20000 nM | > 20000 nM | > 20000 nM | > 20000 nM | > 20000 nM | > 20000 nM | > 20000 nM | 
CCCCS(=O)(=O)Nc1cccc(NC(=O)Nc2ccc(F)c(Cl)c2)c1 [Example 5, N-[3-({[(3-Chloro-4-fluorophenyl)amino]carbonyl}amino)phenyl]-1-butanesulfonamide] | 140 nM | 70 | 140 nM | 6000 nM |  | 1400 nM | 800 nM | 1500 nM |  | 400 nM |  | 1400 nM |  | 9000 nM | > 9000 nM | 
CC(C)n1c(-c2cccc(NC(=O)Nc3ccc(F)c(Cl)c3)c2)n[nH]c1=O [Example 6, 1-(3-Chloro-4-fluorophenyl)-3-[3-(4-isopropyl-5-oxo-4,5-dihydro-1H-[1,2,4]triazol-3-yl)phenyl]urea] | 400 nM | 150 |  |  |  |  |  |  |  |  |  |  |  |  |  | 
O=C(Nc1cccc(-c2n[nH]c(=O)n2C2CCCCC2)c1)Nc1ccc(F)c(Cl)c1 [Example 7, 1-(3-Chloro-4-fluorophenyl)-3-[3-(4-cyclohexyl-5-oxo-4,5-dihydro-1H-[1,2,4]triazol-3-yl)phenyl]urea] | 1500 nM | 30 | 1500 nM | 3000 nM |  | 15000 nM | 7600 nM | 12000 nM |  | 4500 nM |  | 12000 nM |  | 24000 nM | 15000 nM | 
Cc1cc(Cl)ccc1NC(=O)Nc1cccc(C2=NNC(=O)C2(C)C)c1 [Example 8, N-(4-Chloro-2-methylphenyl)-N′-[3-(4,4-dimethyl-5-oxo-4,5-dihydro-1H-pyrazol-3-yl)phenyl]urea] | 600 nM | 30 | 600 nM | 1300 nM |  | > 21000 nM | > 21000 nM | > 21000 nM |  | > 21000 nM |  | > 21000 nM |  | > 21000 nM | > 21000 nM | 226.8 °C
Nc1nc(O)c2ncn(COC(CO)CO)c2n1 [Ganciclovir, reference compound] |  |  | 1000 nM | 1000 nM | 1000 nM | 1000 nM | 1000 nM | 1000 nM | 1000 nM | 1000 nM | 1000 nM | 1000 nM | 1000 nM | 1000 nM | 1000 nM | 
